According to patent US9375004B2 (Bayer Intellectual Property GmbH, priority 2010, dated 2016):

Assay: logP by HPLC on reversed-phase column (EEC Directive 79/831 Annex V.A8)
Conditions: EEC Directive 79/831 Annex V.A8
[1] = HPLC on reversed-phase column (C 18)
[2] = HPLC on a reversed-phase column (C 18)

Row | SMILES | logP [1] | logP [2]
1 | CCOc1ccc(NC(=O)c2c(C(F)F)nn(C)c2Cl)cc1OCC [compound 168] | 2.70 | –
2 | CC(C)Oc1cc(NC(=O)c2c(C(F)F)nn(C)c2F)c(Cl)cc1Cl [compound 172] | 4.41 | –
3 | CC(C)Oc1cc(NC(=O)c2c(C(F)F)nn(C)c2Cl)c(Cl)cc1Cl [compound 173] | 4.68 | –
4 | CCCOc1cccc(NC(=O)c2c(C(F)F)nn(C)c2F)c1 [compound 175] | 3.04 | –
5 | C=C(C)COc1cccc(NC(=O)c2c(C(F)F)nn(C)c2Cl)c1 [compound 177] | 3.33 | –
6 | CCC(C)Oc1cc(NC(=O)c2c(C(F)F)nn(C)c2Cl)ccc1C (stereo not shown) [compound 178] | 4.06 | –
7 | CCC(C)Oc1cc(NC(=O)c2c(C(F)F)nn(C)c2F)ccc1C (stereo not shown) [compound 179] | 3.85 | –
8 | COCCOc1cccc(NC(=O)c2c(C(F)F)nn(C)c2F)c1 [compound 180] | 2.15 | –
9 | Cn1nc(C(F)F)c(C(=O)Nc2cccc(OCC(C)(C)C)c2)c1F [compound 182] | 3.96 | –
10 | Cn1nc(C(F)F)c(C(=O)Nc2cccc(OCC(C)(C)C)c2)c1Cl [compound 183] | 4.19 | –
11 | CCOCCOc1cc(NC(=O)c2c(C(F)F)nn(C)c2Cl)ccc1C [compound 184] | 3.13 | –
12 | CCOCCOc1cc(NC(=O)c2c(C(F)F)nn(C)c2F)ccc1C [compound 185] | 2.96 | –
13 | Cn1nc(C(F)F)c(C(=O)Nc2cccc(OCC(F)(F)F)c2)c1F [compound 186] | 2.88 | –
14 | Cn1nc(C(F)F)c(C(=O)Nc2cccc(OCC(F)(F)F)c2)c1Cl [compound 187] | 3.06 | –
15 | Cn1nc(C(F)F)c(C(=O)Nc2cccc(Br)c2)c1F [compound 189] | 2.82 | –
16 | Cn1nc(C(F)F)c(C(=O)Nc2cccc(Br)c2)c1Cl [compound 190] | 3.04 | –
17 | Cn1nc(C(F)F)c(C(=O)Nc2cccc(C3CC3)c2)c1F [compound 191] | 2.90 | –
18 | Cn1nc(C(F)F)c(C(=O)Nc2ccc3c(c2)OCO3)c1F [compound 194] | 2.05 | –
19 | Cn1nc(C(F)F)c(C(=O)Nc2ccc3c(c2)OCO3)c1Cl [compound 195] | 2.20 | –
20 | Cn1nc(C(F)F)c(C(=O)Nc2cc3c(cc2Br)OC(F)(F)O3)c1F [compound 196] | 3.58 | –
21 | Cn1nc(C(F)F)c(C(=O)Nc2ccc3c(c2)OC(F)(F)O3)c1F [compound 197] | 2.94 | –

Row | SMILES | logP [1] | logP [2]
22 | Cn1nc(C(F)F)c(C(=O)Nc2ccc3c(c2)OC(F)(F)O3)c1Cl [compound 198] | 3.11 | –
23 | Cn1nc(C(F)F)c(C(=O)Nc2ccc3c(c2)OC(F)(F)C(F)(F)O3)c1F [compound 199] | 3.58 | –
24 | Cn1nc(C(F)F)c(C(=O)Nc2ccc3c(c2)OC(F)(F)C(F)(F)O3)c1Cl [compound 200] | 3.76 | –
25 | Cc1ccccc1-c1cccc(NC(=O)c2c(C(F)F)nn(C)c2F)c1 [compound 201] | 3.63 | –
26 | Cc1ccccc1-c1cccc(NC(=O)c2c(C(F)F)nn(C)c2Cl)c1 [compound 202] | 3.83 | –
27 | Cn1nc(C(F)F)c(C(=O)Nc2cccc(-c3ccc(F)cc3)c2)c1F [compound 203] | 3.39 | –
28 | Cn1nc(C(F)F)c(C(=O)Nc2cccc(-c3ccc(F)cc3)c2)c1Cl [compound 204] | 3.59 | –
29 | Cc1cc(C)cc(-c2cccc(NC(=O)c3c(C(F)F)nn(C)c3F)c2)c1 [compound 205] | 4.11 | –
30 | Cc1cc(C)cc(-c2cccc(NC(=O)c3c(C(F)F)nn(C)c3Cl)c2)c1 [compound 206] | 4.34 | –
31 | Cn1nc(C(F)F)c(C(=O)Nc2cccc(-c3ccc(Cl)cc3)c2)c1F [compound 207] | 3.83 | –
32 | Cn1nc(C(F)F)c(C(=O)Nc2cccc(-c3cc(F)cc(F)c3)c2)c1F [compound 209] | 3.62 | –
33 | Cn1nc(C(F)F)c(C(=O)Nc2cccc(-c3cc(F)cc(F)c3)c2)c1Cl [compound 210] | 3.83 | –
34 | Cc1cc(C)c(-c2cccc(NC(=O)c3c(C(F)F)nn(C)c3F)c2)c(C)c1 [compound 211] | 4.34 | –
35 | CC(C)c1cccc(-c2cccc(NC(=O)c3c(C(F)F)nn(C)c3Cl)c2)c1 [compound 213] | 4.61 | –
36 | CC(C)c1cccc(-c2cccc(NC(=O)c3c(C(F)F)nn(C)c3F)c2)c1 [compound 214] | 4.41 | –
37 | CC(C)c1ccc(-c2cccc(NC(=O)c3c(C(F)F)nn(C)c3F)c2)cc1 [compound 215] | 4.46 | –
38 | CC(C)c1ccc(-c2cccc(NC(=O)c3c(C(F)F)nn(C)c3Cl)c2)cc1 [compound 216] | 4.68 | –
39 | Cn1nc(C(F)F)c(C(=O)Nc2cccc(-c3ccc(F)c(Cl)c3)c2)c1F [compound 217] | 3.89 | –
40 | Cn1nc(C(F)F)c(C(=O)Nc2cccc(-c3ccc(F)c(Cl)c3)c2)c1Cl [compound 218] | 4.11 | –
41 | Cn1nc(C(F)F)c(C(=O)Nc2cccc(-c3ccc(C(C)(C)C)cc3)c2)c1F [compound 219] | 4.73 | –
42 | Cn1nc(C(F)F)c(C(=O)Nc2cccc(-c3ccc(C(C)(C)C)cc3)c2)c1Cl [compound 220] | 4.93 | –

Row | SMILES | logP [1] | logP [2]
43 | CC(C)Oc1cccc(-c2cccc(NC(=O)c3c(C(F)F)nn(C)c3F)c2)c1 [compound 221] | 3.99 | –
44 | CC(C)Oc1cccc(-c2cccc(NC(=O)c3c(C(F)F)nn(C)c3Cl)c2)c1 [compound 222] | 4.21 | –
45 | CC(C)Oc1ccc(-c2cccc(NC(=O)c3c(C(F)F)nn(C)c3F)c2)cc1 [compound 223] | 3.96 | –
46 | CC(C)Oc1ccc(-c2cccc(NC(=O)c3c(C(F)F)nn(C)c3Cl)c2)cc1 [compound 224] | 4.19 | –
47 | Cn1nc(C(F)F)c(C(=O)Nc2cccc(-c3ccc(C(F)(F)F)cc3)c2)c1F [compound 225] | 3.99 | –
48 | Cn1nc(C(F)F)c(C(=O)Nc2cccc(-c3ccc(C(F)(F)F)cc3)c2)c1Cl [compound 226] | 4.19 | –
49 | Cn1nc(C(F)F)c(C(=O)Nc2cccc(-c3cccc(Cl)c3Cl)c2)c1F [compound 227] | 3.99 | –
50 | Cn1nc(C(F)F)c(C(=O)Nc2cccc(-c3cccc(Cl)c3Cl)c2)c1Cl [compound 228] | 4.21 | –
51 | Cn1nc(C(F)F)c(C(=O)Nc2cccc(-c3ccc(Cl)cc3Cl)c2)c1F [compound 229] | 4.21 | –
52 | Cn1nc(C(F)F)c(C(=O)Nc2cccc(-c3ccc(Cl)cc3Cl)c2)c1Cl [compound 230] | 4.39 | –
53 | Cn1nc(C(F)F)c(C(=O)Nc2cccc(-c3cc(Cl)cc(Cl)c3)c2)c1F [compound 231] | 4.39 | –
54 | Cn1nc(C(F)F)c(C(=O)Nc2cccc(-c3cc(Cl)cc(Cl)c3)c2)c1Cl [compound 232] | 4.73 | –
55 | CO/N=C(\C)c1ccc(-c2cccc(NC(=O)c3c(C(F)F)nn(C)c3F)c2)cc1 [compound 233] | 3.89 | –
56 | CO/N=C(\C)c1ccc(-c2cccc(NC(=O)c3c(C(F)F)nn(C)c3Cl)c2)cc1 [compound 234] | 4.11 | –
57 | CC(C)COc1ccc(-c2cccc(NC(=O)c3c(C(F)F)nn(C)c3F)c2)cc1 [compound 235] | 4.61 | –
58 | CC(C)COc1ccc(-c2cccc(NC(=O)c3c(C(F)F)nn(C)c3Cl)c2)cc1 [compound 236] | 4.83 | –
59 | Cn1nc(C(F)F)c(C(=O)Nc2cccc(-c3cccc([Si](C)(C)C)c3)c2)c1F [compound 237] | 4.96 | –
60 | Cn1nc(C(F)F)c(C(=O)Nc2cccc(-c3cccc([Si](C)(C)C)c3)c2)c1Cl [compound 238] | 5.17 | –
61 | Cn1nc(C(F)F)c(C(=O)Nc2cccc(-c3ccc([Si](C)(C)C)cc3)c2)c1F [compound 239] | 5.03 | –
62 | Cn1nc(C(F)F)c(C(=O)Nc2cccc(-c3ccc([Si](C)(C)C)cc3)c2)c1Cl [compound 240] | 5.25 | –
63 | Cn1nc(C(F)F)c(C(=O)Nc2cccc(-c3cccc(OC(F)(F)F)c3)c2)c1Cl [compound 241] | 4.31 | –

Row | SMILES | logP [1] | logP [2]
64 | Cn1nc(C(F)F)c(C(=O)Nc2cccc(-c3cccc(OC(F)(F)F)c3)c2)c1F [compound 242] | 4.11 | –
65 | Cn1nc(C(F)F)c(C(=O)Nc2cccc(-c3ccc(OC(F)(F)F)cc3)c2)c1F [compound 243] | 4.14 | –
66 | Cn1nc(C(F)F)c(C(=O)Nc2cccc(-c3ccc(OC(F)(F)F)cc3)c2)c1Cl [compound 244] | – | 4.34
67 | CC(C)O/N=C/c1ccc(-c2cccc(NC(=O)c3c(C(F)F)nn(C)c3F)c2)cc1 [compound 245] | – | 4.46
68 | CC(C)O/N=C/c1ccc(-c2cccc(NC(=O)c3c(C(F)F)nn(C)c3Cl)c2)cc1 [compound 246] | – | 4.66
69 | C/C(=N\OC(C)(C)C)c1ccc(-c2cccc(NC(=O)c3c(C(F)F)nn(C)c3F)c2)cc1 [compound 247] | – | 5.28
70 | C/C(=N\OC(C)(C)C)c1ccc(-c2cccc(NC(=O)c3c(C(F)F)nn(C)c3Cl)c2)cc1 [compound 248] | – | 5.51
71 | Cn1nc(C(F)F)c(C(=O)Nc2cccc(C#Cc3ccccc3)c2)c1F [compound 249] | – | 3.83
72 | Cn1nc(C(F)F)c(C(=O)Nc2cccc(Oc3ccccc3)c2)c1F [compound 250] | – | 3.35
73 | Cn1nc(C(F)F)c(C(=O)Nc2cccc(Oc3ccccc3)c2)c1Cl [compound 251] | – | 3.56
74 | Cn1nc(C(F)F)c(C(=O)Nc2cccc(OCc3ccccc3)c2)c1F [compound 252] | – | 3.35
75 | Cn1nc(C(F)F)c(C(=O)Nc2cccc(OCc3ccccc3)c2)c1Cl [compound 253] | – | 3.55
76 | Cn1nc(C(F)F)c(C(=O)Nc2cccc(Sc3ccccc3)c2)c1Cl [compound 256] | – | 3.85
77 | Cn1nc(C(F)F)c(C(=O)Nc2cccc(Sc3ccccc3)c2)c1F [compound 257] | – | 3.65
78 | Cn1nc(C(F)F)c(C(=O)Nc2cccc(Sc3ccc(C(C)(C)C)cc3)c2)c1F [compound 258] | – | 4.98
79 | Cn1nc(C(F)F)c(C(=O)Nc2cccc(Sc3ccc(C(C)(C)C)cc3)c2)c1Cl [compound 259] | – | 5.17
80 | Cn1nc(C(F)F)c(C(=O)Nc2ccc(OC(F)(F)F)cc2Br)c1F [compound 260] | – | 3.76
81 | Cn1nc(C(F)F)c(C(=O)Nc2ccc(Cl)cc2)c1F [compound 261] | – | 2.70
82 | Cn1nc(C(F)F)c(C(=O)Nc2ccc(C3CCCCC3)cc2)c1F [compound 262] | – | 4.21
